Assay results as given in patent US10626081B2, “Farnesoid X receptor agonists and uses thereof” (Metacrine, Inc., priority 2015, dated 2020).
pEC50: −log10 of the molar value.

Key:
FXR [1] = target: T1, FXR (Homo sapiens, UniProt Q96RI1); experiment: In Vitro FXR Assay (TK): TK-ECRE-luc reporter in transfected CV-1 cells; format: cell-based; settings: CV-1 cells transfected with hFXR, hRXR, 18 h incubation, luminescence
T1 construct: expressed in transfected cells; host or cells: CV-1 cells
T1 sequence (Q96RI1 1-486): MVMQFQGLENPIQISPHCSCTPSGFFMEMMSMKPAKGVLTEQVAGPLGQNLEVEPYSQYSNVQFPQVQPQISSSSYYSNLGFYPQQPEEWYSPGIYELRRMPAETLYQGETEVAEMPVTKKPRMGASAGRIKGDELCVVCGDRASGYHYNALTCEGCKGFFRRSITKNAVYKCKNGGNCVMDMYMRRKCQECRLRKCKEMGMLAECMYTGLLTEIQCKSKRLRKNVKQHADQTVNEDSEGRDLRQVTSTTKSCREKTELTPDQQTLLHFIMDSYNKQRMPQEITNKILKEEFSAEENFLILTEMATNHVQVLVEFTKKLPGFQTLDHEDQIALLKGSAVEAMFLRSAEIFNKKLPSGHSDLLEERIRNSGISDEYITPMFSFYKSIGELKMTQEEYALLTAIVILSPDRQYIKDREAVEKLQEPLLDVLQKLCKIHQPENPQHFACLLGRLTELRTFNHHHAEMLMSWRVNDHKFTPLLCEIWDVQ
T1 sequence (P19793 1-462 partner): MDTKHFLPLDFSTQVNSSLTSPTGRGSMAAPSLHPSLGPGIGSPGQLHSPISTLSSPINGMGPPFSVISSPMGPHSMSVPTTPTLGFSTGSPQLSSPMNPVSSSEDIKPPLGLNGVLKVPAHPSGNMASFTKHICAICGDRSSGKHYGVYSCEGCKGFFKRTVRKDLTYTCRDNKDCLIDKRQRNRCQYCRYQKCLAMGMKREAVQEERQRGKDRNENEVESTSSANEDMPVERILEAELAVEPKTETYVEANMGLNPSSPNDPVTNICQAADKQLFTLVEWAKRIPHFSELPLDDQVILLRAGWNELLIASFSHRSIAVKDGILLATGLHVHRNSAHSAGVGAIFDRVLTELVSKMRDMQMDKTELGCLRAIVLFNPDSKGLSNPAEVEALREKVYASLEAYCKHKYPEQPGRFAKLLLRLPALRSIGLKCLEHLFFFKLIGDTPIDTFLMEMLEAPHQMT
Method in brief: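 CV-1 cells in charcoal-stripped FBS medium were transiently cotransfected with hFXR, hRXR, TK-ECRE-luc and pCMX-YFP plasmids. After 18 h, compounds serially diluted in DMSO were added for 18 h at 37 °C, 5% CO2, then cells were lysed and luminescence read.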

FXR [2] = target: T1, FXR; experiment: In Vitro FXR Assay (PGL3): luciferase reporter in transfected CV-1 cells; format: cell-based; settings: CV-1 cells transfected with hFXR, hRXR, PGL3-ECRE*6-luc; 18 h incubation; luminescence
Method in brief: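 CV-1 cells in charcoal-stripped FBS were transiently co-transfected with full-length human FXR, RXR, an ECRE×6-luciferase reporter, β-gal and YFP plasmids. Transfected cells were reseeded onto half-log compound dilutions and incubated 18 h. Luciferase luminescence was read after lysis, and EC50 was determined.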

SMILES | pEC50 (FXR [1]) | Cmpd/Fex (ratio of the EC50 for the test compound relative to the EC50 of the Fexaramine control) (FXR [2])
COC(=O)/C=C/c1cccc(N(Cc2ccc(-c3ccc(C(F)(F)F)cc3)cc2)C(=O)C2CCCCC2)c1 [compound 36, (E)-Methyl 3-(3-(N-((4′-(trifluoromethyl)-[1,1′-biphenyl]-4-yl)methyl)cyclohexanecarboxamido)phenyl)acrylate] | 5.00 to 6.00 | ++ (‘++’ means Cmpd/Fex > 10 & < 100)
COC(=O)/C=C/c1cccc(N(Cc2ccc(-c3cccc(N(C)C)c3)cc2)C(=O)C2CCCCC2)c1 [compound 37, (E)-Methyl 3-(3-(N-((3′-(dimethylamino)-[1,1′-biphenyl]-4-yl)methyl)cyclohexanecarboxamido)phenyl) acrylate] | 5.00 to 6.00 | ++ (‘++’ means Cmpd/Fex > 10 & < 100)
COC(=O)/C=C/c1cccc(N(Cc2ccc(-c3ccc(N(C)C)nc3)cc2)C(=O)C2CCCCC2)c1 [compound 38, (E)-Methyl 3-(3-(N-(4-(6-(dimethylamino)pyridin-3-yl)benzyl)cyclohexanecarboxamido)phenyl) acrylate] | ≥ 6.00 | +++ (‘+++’ means Cmpd/Fex < 10)
COC(=O)/C=C/c1cc(C)cc(N(Cc2ccc(-c3ccc(N(C)C)cc3)cc2)C(=O)C2CCCCC2)c1 [compound 39, (E)-Methyl 3-(3-(N-((4′-(dimethylamino)-[1,1′-biphenyl]-4-yl)methyl)cyclohexanecarboxamido)-5-methylphenyl)acrylate] | 5.00 to 6.00 | +++ (‘+++’ means Cmpd/Fex < 10)
COC(=O)/C=C/c1cc(N(Cc2ccc(-c3ccc(N(C)C)cc3)cc2)C(=O)C2CCCCC2)ccc1C [compound 40, (E)-Methyl 3-(5-(N-((4′-(dimethylamino)-[1,1′-biphenyl]-4-yl)methyl)cyclohexanecarboxamido)-2-methylphenyl)acrylate] | < 5.00 | + (‘+’ means Cmpd/Fex > 100)
COC(=O)/C=C/c1cccc(N(Cc2ccc(-c3ccc(N(C)C)cc3)cc2)C(=O)C2CCCCC2)c1C [compound 41, (E)-Methyl 3-(3-(N-((4′-(dimethylamino)-[1,1′-biphenyl]-4-yl)methyl)cyclohexanecarboxamido)-2-methylphenyl)acrylate] | 5.00 to 6.00 | ++ (‘++’ means Cmpd/Fex > 10 & < 100)
COC(=O)/C=C/c1ccc(C)c(N(Cc2ccc(-c3ccc(N(C)C)cc3)cc2)C(=O)C2CCCCC2)c1 [compound 42, (E)-Methyl 3-(3-(N-((4′-(dimethylamino)-[1,1′-biphenyl]-4-yl)methyl)cyclohexanecarboxamido)-4-methylphenyl)acrylate] | 5.00 to 6.00 | +++ (‘+++’ means Cmpd/Fex < 10)
COC(=O)CCc1cccc(N(Cc2ccc(-c3ccc(N(C)C)cc3)cc2)C(=O)C2CCCCC2)c1 [compound 43, Methyl 3-(3-(N-((4′-(dimethylamino)-[1,1′-biphenyl]-4-yl)methyl)cyclohexanecarboxamido)phenyl) propanoate] | 5.00 to 6.00 | ++ (‘++’ means Cmpd/Fex > 10 & < 100)
COC/C=C/c1cccc(N(Cc2ccc(-c3ccc(N(C)C)cc3)cc2)C(=O)C2CCCCC2)c1 [compound 44, (E)-N-((4′-(Dimethylamino)-[1,1′-biphenyl]-4-yl)methyl)-N-(3-(3-methoxyprop-1-en-1-yl)phenyl)cyclohexanecarboxamide] | 5.00 to 6.00 | +++ (‘+++’ means Cmpd/Fex < 10)
COC(=O)/C=C(\C)c1cccc(N(Cc2ccc(-c3ccc(N(C)C)cc3)cc2)C(=O)C2CCCCC2)c1 [compound 45, (E)-Methyl 3-(3-(N-((4′-(dimethylamino)-[1,1′-biphenyl]-4-yl)methyl)cyclohexanecarboxamido)phenyl)but-2-enoate] | 5.00 to 6.00 | +++ (‘+++’ means Cmpd/Fex < 10)
COC(=O)/C=C/c1cccc(N(C(=O)C2CCCCC2)C(C)c2ccc(-c3ccc(N(C)C)cc3)cc2)c1 (stereo not shown) [compound 46, (E)-Methyl 3-(3-(N-(1-(4′-(dimethylamino)-[1,1′-biphenyl]-4-yl)ethyl)cyclohexanecarboxamido)phenyl) acrylate] | 5.00 to 6.00 | ++ (‘++’ means Cmpd/Fex > 10 & < 100)
COC(=O)/C=C/c1cccc(N(Cc2ccc(-c3cccc(C(C)C)c3)cc2)C(=O)C2CCCCC2)c1 [compound 47, (E)-Methyl 3-(3-(N-((3′-isopropyl-[1,1′-biphenyl]-4-yl)methyl)cyclohexanecarboxamido)phenyl) acrylate] | < 5.00 | + (‘+’ means Cmpd/Fex > 100)
COC(=O)/C=C/c1cccc(N(Cc2ccc(-c3ccc(N4CCCC4)cc3)cc2)C(=O)C2CCCCC2)c1 [compound 48, (E)-Methyl 3-(3-(N-((4′-(pyrrolidin-1-yl)-[1,1′-biphenyl]-4-yl)methyl)cyclohexanecarboxamido)phenyl) acrylate] | 5.00 to 6.00 | +++ (‘+++’ means Cmpd/Fex < 10)
COC(=O)/C=C/c1cccc(N(Cc2ccc(-c3ccc4[nH]ncc4c3)cc2)C(=O)C2CCCCC2)c1 [compound 49, (E)-Methyl 3-(3-(N-(4-(1H-indazol-5-yl)benzyl)cyclohexanecarboxamido)phenyl) acrylate] | 5.00 to 6.00 | + (‘+’ means Cmpd/Fex > 100)
COC(=O)/C=C/c1cccc(N(Cc2ccc(-c3ccc(N(C)C)cc3)c(F)c2)C(=O)C2CCCCC2)c1 [compound 50, (E)-methyl 3-(3-(N-((4′-(dimethylamino)-2-fluoro-[1,1′-biphenyl]-4-yl)methyl)cyclohexanecarboxamido)phenyl) acrylate] | ≥ 6.00 | +++ (‘+++’ means Cmpd/Fex < 10)
COC(=O)/C=C/c1cccc(N(Cc2ccc(-c3ccc(N(C)C)cc3)cc2F)C(=O)C2CCCCC2)c1 [compound 51, (E)-methyl 3-(3-(N-((4′-(dimethylamino)-3-fluoro-[1,1′-biphenyl]-4-yl)methyl)cyclohexanecarboxamido)phenyl)acrylate] | ≥ 6.00 | +++ (‘+++’ means Cmpd/Fex < 10)
COC(=O)/C=C/c1cccc(N(Cc2ccc(-c3ccc(OC)c(C)c3)cc2)C(=O)C2CCCCC2)c1 [compound 52, (E)-Methyl 3-(3-(N-((4′-methoxy-3′-methyl-[1,1′-biphenyl]-4-yl)methyl)cyclohexanecarboxamido)phenyl) acrylate] | ≥ 6.00 | +++ (‘+++’ means Cmpd/Fex < 10)
COC(=O)/C=C/c1cccc(N(Cc2ccc(-c3ccc(N(C)C)cc3)c(C)c2)C(=O)C2CCCCC2)c1 [compound 53, (E)-Methyl 3-(3-(N-((4′-(dimethylamino)-2-methyl-[1,1′-biphenyl]-4-yl)methyl)cyclohexanecarboxamido)phenyl) acrylate] | 5.00 to 6.00 | +++ (‘+++’ means Cmpd/Fex < 10)
COC(=O)/C=C/c1cccc(N(Cc2ccc(-c3ccc(N(C)C)cc3)cc2C)C(=O)C2CCCCC2)c1 [compound 54, (E)-Methyl 3-(3-(N-((4′-(dimethylamino)-3-methyl-[1,1′-biphenyl]-4-yl)methyl)cyclohexanecarboxamido)phenyl) acrylate] | ≥ 6.00 | +++ (‘+++’ means Cmpd/Fex < 10)
COC(=O)/C=C/c1cccc(N(Cc2ccc(-c3cccc(O)c3)cc2)C(=O)C2CCCCC2)c1 [compound 55, (E)-Methyl 3-(3-(N-((3′-hydroxy-[1,1′-biphenyl]-4-yl)methyl)cyclohexanecarboxamido)phenyl) acrylate] | < 5.00 | + (‘+’ means Cmpd/Fex > 100)
